From patent publication US20190330224A1, “ACC INHIBITORS AND USES THEREOF” (Gilead Apollo, LLC, priority 2015, published 2019)
≈ marks a conversion by molar mass, not a printed value.

Tests used:
[1] = system: Fusarium moniliforme (Fm); assay: Growth inhibition assay of fungal pathogens, Fm; format: cell-based; conditions: Fusarium verticillioides; 48 hours; read-out: Concentration at 90% Inhibition, Fm
In short: (§1)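 Spores in 17% V8 liquid medium were exposed to compound at final 50, 10 and 2 ppm or 2, 0.4 and 0.08 ppm with 2% DMSO. After 48 h, OD600 (blank-subtracted) and visual ratings were compared with the 2% DMSO control to give percent growth inhibition.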

Diplodia maydis (Dm) = assay: Growth inhibition assay of fungal pathogens, Dm; format: cell-based; conditions: Stenocarpella maydis; 48 hours; read-out: Concentration at 90% Inhibition, Dm
In short: as §1

Septoria tritici (St) = assay: Growth inhibition assay of fungal pathogens, St; format: cell-based; conditions: Zymoseptoria tritici; 48 hours; read-out: Concentration at 90% Inhibition, St
In short: as §1

Human ACC2 = Human ACC2 (Homo sapiens, UniProt O00763); assay: In vitro ACC2 inhibition assay (ADP-Glo), human ACC2; format: biochemical; conditions: 5 nM ACC2, 20 μM ATP, 20 μM acetyl-CoA
[2] = system: Collectotrichum graminicola (Cg); assay: Growth inhibition assay of fungal pathogens, Cg; format: cell-based; conditions: 48 hours; read-out: Concentration at 90% Inhibition, Cg
In short: as §1

[3] = system: Blumeria graminis f sp. hordei; assay: Foliar protection test, barley powdery mildew control; format: in vivo, Blumeria graminis f sp. hordei on Hordeum vulgare cv. Perry; conditions: 168 h, compound concentration 50 ppm, foliar spray, evaluated 7 days after inoculation, read-out: Barley Powdery Mildew Control at 50 ppm
In short: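 Barley cv. Perry at first true leaf (6 days) sprayed to wetness on both leaf sides with compound in 5% acetone/0.005% Tween 80, typically at 200, 100, 50, 10 or 2 ppm. Inoculated 24 h later by shaking spores from colonized plants; kept at 20-22 °C, 70% RH. Mildew colonization scored 7 days later as percent control.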

C. krusei ATCC 6258 = assay: Anti-Fungal Activity Assay (broth microtiter MIC), C. krusei; format: cell-based, Candida krusei; conditions: Pichia kudriavzevii, ATCC6258, 48 h, 3 replicates; MIC recorded at 48 h; read-out: MIC C. krusei ATCC 6258
In short: (§2)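 MIC taken as visual growth inhibition versus the growth control, mostly at 48 h (soraphen also at 24 h). Following CLSI M27-A3, colonies grown overnight at 35° C on Sabouraud dextrose agar were suspended in RPMI 1640+MOPS; test agents came from 1 mg/mL DMSO stocks.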

Botrtyis cinerea (Bc) = assay: Growth inhibition assay of fungal pathogens, Bc; format: cell-based; conditions: 48 hours; read-out: Concentration at 90% Inhibition, Bc
In short: as §1

C. albicans ATCC 90028 = assay: Anti-Fungal Activity Assay (broth microtiter MIC), C. albicans; format: cell-based, Candida albicans; conditions: Candida albicans, ATCC90028, 48 h, 3 replicates; MIC recorded at 48 h; read-out: MIC C. albicans ATCC 90028
In short: as §2

Fungal ACC2 = Fungal ACC2 (UniProt Q00955); conditions: read-out: Fungal ACC2 (IC50, in vitro ACC2 inhibition)
[4] = system: Phytophthora capsici (Pc); assay: Growth inhibition assay of fungal pathogens, Pc; format: cell-based; conditions: 48 hours, read-out: Concentration at 90% Inhibition, Pc
In short: as §1

[5] = system: C. parapsilosis ATCC 22019; assay: Anti-Fungal Activity Assay (broth microtiter MIC), C. parapsilosis; format: cell-based, Candida parapsilosis; conditions: Lodderomyces parapsilosis, ATCC22019, 48 h, 3 replicates; MIC recorded at 48 h; read-out: MIC C. parapsilosis ATCC 22019
In short: as §2

[6] = compound concentration 10 ppm, foliar spray, evaluated 7 days after inoculation
Rhizoctonia solani (Rs) = assay: Growth inhibition assay of fungal pathogens, Rs; format: cell-based; conditions: 48 hours, read-out: Concentration at 90% Inhibition, Rs
[7] = system: Fusarium virguliforme (Fv); assay: Growth inhibition assay of fungal pathogens, Fv; format: cell-based; conditions: 48 hours, read-out: Concentration at 90% Inhibition, Fv
In short: as §1

Chain of Fungal ACC2 (Q00955 whole entry): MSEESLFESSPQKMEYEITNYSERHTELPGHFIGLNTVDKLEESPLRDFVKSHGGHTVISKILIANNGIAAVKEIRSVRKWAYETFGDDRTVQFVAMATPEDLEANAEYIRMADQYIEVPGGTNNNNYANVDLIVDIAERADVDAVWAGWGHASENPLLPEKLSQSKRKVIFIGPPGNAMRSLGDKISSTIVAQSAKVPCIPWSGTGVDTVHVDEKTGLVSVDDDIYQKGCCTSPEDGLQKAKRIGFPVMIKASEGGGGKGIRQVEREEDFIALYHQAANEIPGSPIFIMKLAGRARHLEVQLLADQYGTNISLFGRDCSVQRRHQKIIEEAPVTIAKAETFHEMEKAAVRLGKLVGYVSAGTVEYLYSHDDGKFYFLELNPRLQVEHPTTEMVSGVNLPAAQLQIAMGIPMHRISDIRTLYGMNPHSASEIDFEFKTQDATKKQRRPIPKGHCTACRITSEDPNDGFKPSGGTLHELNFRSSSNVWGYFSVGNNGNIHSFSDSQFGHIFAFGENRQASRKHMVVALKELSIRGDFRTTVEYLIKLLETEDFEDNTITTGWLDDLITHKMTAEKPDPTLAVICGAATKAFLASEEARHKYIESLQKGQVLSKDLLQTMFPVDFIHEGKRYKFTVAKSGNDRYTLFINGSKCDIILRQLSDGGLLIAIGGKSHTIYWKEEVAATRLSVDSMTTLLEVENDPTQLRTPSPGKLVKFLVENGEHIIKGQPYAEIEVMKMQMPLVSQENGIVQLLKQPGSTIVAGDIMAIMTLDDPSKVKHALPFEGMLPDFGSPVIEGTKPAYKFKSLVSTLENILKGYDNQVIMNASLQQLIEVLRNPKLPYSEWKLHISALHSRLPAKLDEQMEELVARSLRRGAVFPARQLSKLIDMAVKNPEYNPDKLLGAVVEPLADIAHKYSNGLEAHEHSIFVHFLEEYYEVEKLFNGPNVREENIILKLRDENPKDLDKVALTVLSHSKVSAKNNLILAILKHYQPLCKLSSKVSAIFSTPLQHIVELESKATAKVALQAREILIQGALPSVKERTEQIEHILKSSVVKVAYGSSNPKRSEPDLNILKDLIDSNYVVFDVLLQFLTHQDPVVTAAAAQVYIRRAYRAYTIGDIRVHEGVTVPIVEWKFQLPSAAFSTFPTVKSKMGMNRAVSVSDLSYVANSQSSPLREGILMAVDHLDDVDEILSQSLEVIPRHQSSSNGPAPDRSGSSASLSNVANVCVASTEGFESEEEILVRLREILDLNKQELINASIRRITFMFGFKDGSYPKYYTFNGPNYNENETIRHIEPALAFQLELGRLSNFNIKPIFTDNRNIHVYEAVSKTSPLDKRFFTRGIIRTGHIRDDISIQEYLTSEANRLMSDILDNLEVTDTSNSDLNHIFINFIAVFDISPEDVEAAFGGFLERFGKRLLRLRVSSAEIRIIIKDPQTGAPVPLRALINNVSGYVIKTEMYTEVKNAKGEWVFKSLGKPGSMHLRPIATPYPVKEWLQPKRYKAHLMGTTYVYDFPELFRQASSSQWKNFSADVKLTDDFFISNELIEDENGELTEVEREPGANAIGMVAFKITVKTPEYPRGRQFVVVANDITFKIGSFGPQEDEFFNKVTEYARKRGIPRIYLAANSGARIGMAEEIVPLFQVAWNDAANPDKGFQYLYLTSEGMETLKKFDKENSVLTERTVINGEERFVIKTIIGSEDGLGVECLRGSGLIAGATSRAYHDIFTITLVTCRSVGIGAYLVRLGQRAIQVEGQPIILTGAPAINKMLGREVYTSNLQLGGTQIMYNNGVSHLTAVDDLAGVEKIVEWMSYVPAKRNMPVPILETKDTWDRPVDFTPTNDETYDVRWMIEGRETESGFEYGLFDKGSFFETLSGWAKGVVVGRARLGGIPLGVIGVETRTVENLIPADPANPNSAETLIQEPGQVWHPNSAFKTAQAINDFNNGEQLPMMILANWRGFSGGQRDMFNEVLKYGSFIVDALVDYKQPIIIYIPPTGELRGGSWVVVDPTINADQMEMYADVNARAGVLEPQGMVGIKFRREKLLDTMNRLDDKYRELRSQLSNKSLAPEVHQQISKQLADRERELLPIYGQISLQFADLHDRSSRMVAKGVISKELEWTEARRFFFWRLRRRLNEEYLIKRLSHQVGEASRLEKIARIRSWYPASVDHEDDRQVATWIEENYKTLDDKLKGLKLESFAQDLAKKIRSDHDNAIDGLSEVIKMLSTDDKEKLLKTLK
Chain of Human ACC2 (O00763 whole entry): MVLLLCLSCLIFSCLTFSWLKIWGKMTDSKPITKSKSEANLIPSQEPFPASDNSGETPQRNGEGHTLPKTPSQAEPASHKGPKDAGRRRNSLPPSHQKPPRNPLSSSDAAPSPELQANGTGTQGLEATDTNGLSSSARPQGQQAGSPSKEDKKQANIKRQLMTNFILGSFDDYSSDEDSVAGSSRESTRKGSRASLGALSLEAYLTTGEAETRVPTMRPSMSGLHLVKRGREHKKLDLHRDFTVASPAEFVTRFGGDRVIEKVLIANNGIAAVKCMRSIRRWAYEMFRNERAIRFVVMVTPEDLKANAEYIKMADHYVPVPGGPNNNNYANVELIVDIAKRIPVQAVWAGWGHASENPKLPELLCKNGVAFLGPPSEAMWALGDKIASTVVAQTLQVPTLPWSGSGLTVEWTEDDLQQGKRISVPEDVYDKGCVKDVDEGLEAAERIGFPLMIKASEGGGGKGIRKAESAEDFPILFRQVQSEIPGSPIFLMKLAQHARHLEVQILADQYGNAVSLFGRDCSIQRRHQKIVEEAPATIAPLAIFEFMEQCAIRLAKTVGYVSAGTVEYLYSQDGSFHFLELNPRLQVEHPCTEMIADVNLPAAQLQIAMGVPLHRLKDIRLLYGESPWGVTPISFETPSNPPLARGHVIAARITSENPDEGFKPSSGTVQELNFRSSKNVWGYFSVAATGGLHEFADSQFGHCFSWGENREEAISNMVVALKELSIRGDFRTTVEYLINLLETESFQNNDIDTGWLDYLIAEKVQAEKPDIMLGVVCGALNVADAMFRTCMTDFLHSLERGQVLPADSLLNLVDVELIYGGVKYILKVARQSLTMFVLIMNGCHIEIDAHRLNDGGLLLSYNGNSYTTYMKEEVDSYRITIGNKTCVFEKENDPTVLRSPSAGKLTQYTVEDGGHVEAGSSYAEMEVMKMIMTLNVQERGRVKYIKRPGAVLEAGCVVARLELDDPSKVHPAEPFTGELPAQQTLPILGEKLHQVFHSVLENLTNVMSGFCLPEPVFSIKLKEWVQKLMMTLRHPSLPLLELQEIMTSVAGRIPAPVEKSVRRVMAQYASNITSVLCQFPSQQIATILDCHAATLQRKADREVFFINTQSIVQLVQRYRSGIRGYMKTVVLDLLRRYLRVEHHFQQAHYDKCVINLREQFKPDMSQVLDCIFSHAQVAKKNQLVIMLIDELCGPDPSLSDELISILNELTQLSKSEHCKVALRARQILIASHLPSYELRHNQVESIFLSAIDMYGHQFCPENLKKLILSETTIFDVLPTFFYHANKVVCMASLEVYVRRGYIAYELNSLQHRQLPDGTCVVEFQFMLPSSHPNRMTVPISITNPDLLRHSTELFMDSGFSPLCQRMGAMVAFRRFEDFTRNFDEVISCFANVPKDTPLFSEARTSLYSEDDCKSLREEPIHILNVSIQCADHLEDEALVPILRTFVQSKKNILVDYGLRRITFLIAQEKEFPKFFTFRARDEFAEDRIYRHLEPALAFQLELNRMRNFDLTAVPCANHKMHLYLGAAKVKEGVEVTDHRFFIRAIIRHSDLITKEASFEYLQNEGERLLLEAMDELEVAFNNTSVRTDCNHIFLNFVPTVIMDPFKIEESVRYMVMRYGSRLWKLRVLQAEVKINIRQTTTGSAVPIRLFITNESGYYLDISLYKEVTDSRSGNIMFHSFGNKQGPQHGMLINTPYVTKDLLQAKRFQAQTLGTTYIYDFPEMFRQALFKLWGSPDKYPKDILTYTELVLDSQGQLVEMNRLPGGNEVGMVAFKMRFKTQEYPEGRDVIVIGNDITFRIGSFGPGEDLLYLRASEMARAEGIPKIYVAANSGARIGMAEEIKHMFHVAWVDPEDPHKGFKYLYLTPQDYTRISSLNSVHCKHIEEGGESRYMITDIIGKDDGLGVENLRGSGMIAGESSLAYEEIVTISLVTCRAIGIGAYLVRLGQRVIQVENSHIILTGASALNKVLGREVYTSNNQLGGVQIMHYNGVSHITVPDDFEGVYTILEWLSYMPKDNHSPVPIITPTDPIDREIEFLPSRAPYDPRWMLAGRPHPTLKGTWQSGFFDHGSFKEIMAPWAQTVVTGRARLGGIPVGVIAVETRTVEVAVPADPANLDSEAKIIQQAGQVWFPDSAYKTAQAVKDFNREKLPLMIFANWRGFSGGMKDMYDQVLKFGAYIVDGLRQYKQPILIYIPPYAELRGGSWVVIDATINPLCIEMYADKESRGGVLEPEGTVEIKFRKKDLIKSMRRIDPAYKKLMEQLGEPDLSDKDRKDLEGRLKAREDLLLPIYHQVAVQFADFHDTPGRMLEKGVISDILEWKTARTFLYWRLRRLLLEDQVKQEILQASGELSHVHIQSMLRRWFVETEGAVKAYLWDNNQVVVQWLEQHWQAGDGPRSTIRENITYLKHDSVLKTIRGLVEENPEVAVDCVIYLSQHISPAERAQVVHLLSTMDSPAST

SMILES | IC90 [1] [µg/mL] | IC90 (Diplodia maydis (Dm)) [µg/mL] | IC90 (Septoria tritici (St)) [µg/mL] | IC50 (Human ACC2) [nM] | IC90 [2] [µg/mL] | pest or weed control at 50 ppm [3] [%] | MIC (C. krusei ATCC 6258) [µg/mL] | IC90 (Botrtyis cinerea (Bc)) [µg/mL] | MIC (C. albicans ATCC 90028) [µg/mL] | IC50 (Fungal ACC2) [nM] | IC90 [4] [µg/mL] | MIC [5] [µg/mL] | Barley Powdery Mildew Control at 10 ppm [6] | IC90 (Rhizoctonia solani (Rs)) [µg/mL] | IC90 [7] [µg/mL]
COCCO[C@@H](Cn1c(=O)n([C@@H]2CCCNC2=O)c(=O)c2c(C)c(-n3cccn3)sc21)c1cc(F)ccc1OC [Compound I-46, 1-((R)-2-(5-fluoro-2-methoxyphenyl)-22-(2-methoxy-ethoxy)ethyl)-5-methyl-3-((R)-2-oxopiperidin-3-yl)-6-(I H-pyrazol-1-yl)thieno[2,3-d]pyrimidine-2,4(1H,3H)-dione] | > 50 | > 50 | > 50 | 100 to 1000 | > 50 | 50 to 69 | 2.1 to 4 (≈ 3.67 to 7 µM) | > 50 | 2.1 to 4 (≈ 3.67 to 7 µM) | 10 to 100 | > 50 | 2.1 to 4 (≈ 3.67 to 7 µM) | D (provided a compound having <25% control of barley powdery mildew) | > 50 | > 50
COCCO[C@@H](Cn1c(=O)n([C@H]2CCCN(C)C2=O)c(=O)c2c(C)c(-n3cccn3)sc21)c1cc(F)ccc1OC [Compound I-47, 1-((R)-2-(5-fluoro-2-methoxyphenyl)-2-(2-methoxy-ethoxy)ethyl)-5-methyl-3-((S)-1-methyl-2-oxopiperidin-3-yl)-6-(I H-pyrazol-1-yl)thieno[2,3-d]pyrimidine-2,4(1H,3H)-dione] | > 50 | > 50 | > 50 | 100 to 1000 | > 50 | 50 to 69 | 2.1 to 4 (≈ 3.59 to 6.83 µM) | > 50 | 2.1 to 4 (≈ 3.59 to 6.83 µM) | 2 to 10 | > 50 | 2.1 to 4 (≈ 3.59 to 6.83 µM) | D (provided a compound having <25% control of barley powdery mildew) | > 50 | > 50
COCCO[C@@H](Cn1c(=O)n([C@@H]2CCCN(C)C2=O)c(=O)c2c(C)c(-n3cccn3)sc21)c1cc(F)ccc1OC [Compound I-48, 1-((R)-2-(5-fluoro-2-methoxyphenyl)-2-(2-methoxy-ethoxy)ethyl)-5-methyl-3-((R)-1-methyl-2-oxopiperidin-3-yl)-6-(1H-pyrazol-1-yl)thieno[2,3-d]pyrimidine-2,4(1H,3H)-dione] | > 50 | > 50 | > 50 | 100 to 1000 | > 50 | 50 to 69 | 2.1 to 4 (≈ 3.59 to 6.83 µM) | > 50 | 2.1 to 4 (≈ 3.59 to 6.83 µM) | 10 to 100 | > 50 | 2.1 to 4 (≈ 3.59 to 6.83 µM) | C (provided a compound having from 25 to 49% control of barley powdery mildew) | > 50 | > 50
COc1ccc(F)cc1[C@H](Cn1c(=O)n([C@H]2CCCNC2=O)c(=O)c2c(C)c(-n3nccn3)sc21)OCCO [Compound I-70, 1-((R)-2-(5-fluoro-2-methoxyphenyl)-2-(2-hydroxy-ethoxy)ethyl)-5-methyl-3-((S)-2-oxopiperidin-3-yl)-6-(2H-1,2,3-triazol-2-yl)thieno[2,3-d]pyrimidine-2,4(1H,3H)-dione] | 2 (≈ 3.58 µM) | > 50 | > 50 | 10 to 100 | 10 (≈ 17.9 µM) | 50 to 69 | 2.1 to 4 (≈ 3.76 to 7.16 µM) | 2 (≈ 3.58 µM) | 2.1 to 4 (≈ 3.76 to 7.16 µM) | 0.7 to 2 | > 50 | 2.1 to 4 (≈ 3.76 to 7.16 µM) | D (provided a compound having <25% control of barley powdery mildew) | 10 (≈ 17.9 µM) | 2 (≈ 3.58 µM)
COc1ccc(F)cc1[C@H](Cn1c(=O)n([C@@H]2CCCNC2=O)c(=O)c2c(C)c(-n3nccn3)sc21)OCCO [Compound I-71, 1-((R)-2-(5-fluoro-2-methoxyphenyl)-2-(2-hydroxy-ethoxy)ethyl)-5-methyl-3-((R)-2-oxopiperidin-3-yl)-6-(2H-1,2,3-triazol-2-yl)thieno[2,3-d]pyrimidine-2,4(1H,3H)-dione] | 2 (≈ 3.58 µM) | > 50 | > 50 | 2 to 10 | 10 (≈ 17.9 µM) | 50 to 69 | 2.1 to 4 (≈ 3.76 to 7.16 µM) | 2 (≈ 3.58 µM) | 2.1 to 4 (≈ 3.76 to 7.16 µM) | 0.7 to 2 | > 50 | 2.1 to 4 (≈ 3.76 to 7.16 µM) | D (provided a compound having <25% control of barley powdery mildew) | 2 (≈ 3.58 µM) | 2 (≈ 3.58 µM)
COc1ccc(F)cc1[C@H](Cn1c(=O)n([C@H]2CCCN(C)C2=O)c(=O)c2c(C)c(-n3nccn3)sc21)OCCO [Compound I-72, 1-((R)-2-(5-fluoro-2-methoxyphenyl)-2-(2-hydroxyethoxy)ethyl)-5-methyl-3-((S)-1-methyl-2-oxopiperidin-3-yl)-6-(2H-1,2,3-triazol-2-yl)thieno[2,3-d]pyrimidine-2,4(1H,3H)-dione] | 2 (≈ 3.49 µM) | 10 (≈ 17.5 µM) | > 50 | 2 to 10 | 10 (≈ 17.5 µM) | 25 to 49 | 2.1 to 4 (≈ 3.67 to 6.99 µM) | > 50 | 2.1 to 4 (≈ 3.67 to 6.99 µM) | 0.7 to 2 | > 50 | 2.1 to 4 (≈ 3.67 to 6.99 µM) | D (provided a compound having <25% control of barley powdery mildew) | 2 (≈ 3.49 µM) | 2 (≈ 3.49 µM)
COc1ccc(F)cc1[C@H](Cn1c(=O)n([C@@H]2CCCN(C)C2=O)c(=O)c2c(C)c(-n3nccn3)sc21)OCCO [Compound I-73, 1-((R)-2-(5-fluoro-2-methoxyphenyl)-2-(2-hydroxy-ethoxy)ethyl)-5-methyl-3-((R)-1-methyl-2-oxopiperidin-3-yl)-6-(2H-1,2,3-triazol-2-yl)thieno[2,3-d]pyrimidine-2,4(1H,3H)-dione] | 2 (≈ 3.49 µM) | 2 (≈ 3.49 µM) | > 50 | 10 to 100 | 2 (≈ 3.49 µM) | 50 to 69 | 2.1 to 4 (≈ 3.67 to 6.99 µM) | 10 (≈ 17.5 µM) | 2.1 to 4 (≈ 3.67 to 6.99 µM) | 0.7 to 2 | > 50 | 2.1 to 4 (≈ 3.67 to 6.99 µM) | D (provided a compound having <25% control of barley powdery mildew) | 2 (≈ 3.49 µM) | 2 (≈ 3.49 µM)
COc1ccc(F)cc1[C@H](Cn1c(=O)n([C@H]2CCNC2=O)c(=O)c2c(C)c(-n3nccn3)sc21)OCCO [Compound I-80, 1-((R)-2-(5-fluoro-2-methoxyphenyl)-2-(2-hydroxy-ethoxy)ethyl)-5-methyl-3-((S)-2-oxopyrrolidin-3-yl)-6-(2H-1,2,3-triazol-2-yl)thieno[2,3-d]pyrimidine-2,4(1H,3H)-dione] | 2 (≈ 3.67 µM) | > 50 | > 50 | 2 to 10 | > 50 | 25 to 49 | 2.1 to 4 (≈ 3.86 to 7.35 µM) | 2 (≈ 3.67 µM) | 2.1 to 4 (≈ 3.86 to 7.35 µM) | 0.7 to 2 | > 50 | 2.1 to 4 (≈ 3.86 to 7.35 µM) | D (provided a compound having <25% control of barley powdery mildew) | 10 (≈ 18.4 µM) | 10 (≈ 18.4 µM)
COc1ccc(F)cc1[C@H](Cn1c(=O)n([C@H]2CCN(C)C2=O)c(=O)c2c(C)c(-n3nccn3)sc21)OCCO [Compound I-82, 1-((R)-2-(5-fluoro-2-methoxyphenyl)-2-(2-hydroxy-ethoxy)ethyl)-5-methyl-3-((S)-1-methyl-2-oxopyrrolidin-3-yl)-6-(2H-1,2,3-triazol-2-yl)thieno[2,3-d]pyrimidine-2,4(1H,3H)-dione] | 2 (≈ 3.58 µM) | 10 (≈ 17.9 µM) | > 50 | 2 to 10 | 10 (≈ 17.9 µM) | 25 to 49 | 2.1 to 4 (≈ 3.76 to 7.16 µM) | 2 (≈ 3.58 µM) | 2.1 to 4 (≈ 3.76 to 7.16 µM) | 0.7 to 2 | > 50 | 2.1 to 4 (≈ 3.76 to 7.16 µM) | D (provided a compound having <25% control of barley powdery mildew) | 2 (≈ 3.58 µM) | 2 (≈ 3.58 µM)
